In patent US20180230122A1, “PRODUCTION METHOD FOR HETEROARYLCARBOXYLIC ACID ESTER DERIVATIVE, PRODUCTION INTERMEDIATE THEREOF, AND CRYSTAL” (EA PHARMA CO., LTD., priority 2014, published 2018):
Structures can show the parent of a compound that is named as a salt.

Assay: Preservation stability of the crystal at 40° C/75% RH for 6 months (water content by Karl-Fischer, content by HPLC)
Assay type: physicochemical
Conditions: for content (%) (converted into dehydrated form): HPLC method; for water content (%): Karl-Fischer method
Experimental: A crystal of 3-[5-(4-carbamimidoyl-2-fluorophenoxy)carbonyl-2-thienyl]-2,2-dimethylpropanoic acid hydrochloride obtained by the method of Example 3 was preserved for 6 months under 40° C/75% RH conditions. […] Therefore, the crystalline form is useful as a crystalline form of a drug substance for pharmaceutical products.
The water content was measured by the Karl-Fischer method, and the content was measured by the HPLC method using a column charged with octadecylsilyl silica gel for liquid chromatography.

content (%) (converted into dehydrated form) (6 months at 40° C/75% RH): 99.5% | water content (%) (6 months at 40° C/75% RH): 0.1% | preservation stability of the crystal (40° C./75% RH for 6 months): stable | content (%) (converted into dehydrated form) (start): 99.5% | water content (%) (start): 0.1%
SMILES: CC(C)(Cc1ccc(C(=O)Oc2ccc(C(=N)N)cc2F)s1)C(=O)O [Example 3, 3-[5-(4-carbamimidoyl-2-fluorophenoxy)carbonyl-2-thienyl]-2,2-dimethylpropanoic acid hydrochloride]
